Experimental data published in PubChem BioAssay AID248 (DTP/NCI, 2004).
Where “and” joins values, the source holds several entries; their conditions need not be identical. Identical values can stand only once. Inconclusive results and toxic doses are left out. No stated cut-off is given here; in the data, active means T/C of 150% or more; inactive means T/C below 125%.

Tested on: L1210 leukemia ip in BDF1 mice, survival T/C
Test: NCI In Vivo Anticancer Drug Screen. Data for tumor model L1210 Leukemia (intraperitoneal) in B6D2F1 (BDF1) mice
Conditions: endpoint: mean survival time, higher = longer survival
Outline: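 In this screen, tumor-bearing mice given compound are compared to those given vehicle, and their survival values are reported as a treated-to-control quotient.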

[1] = dose: 100.0 mg/kg/injection, schedule: Q01DX001 (ip), vehicle: Klucel (hydroxypropylcellulose) (HPC)
[2] = dose: 100.0 mg/kg/injection, schedule: Q01DX009 (ip), vehicle: saline with Tween-80
[3] = dose: 200.0 mg/kg/injection, schedule: Q01DX009 (ip), vehicle: saline with Tween-80
[4] = dose: 400.0 mg/kg/injection, schedule: Q01DX009 (ip), vehicle: saline with Tween-80
[5] = dose: 100.0 mg/kg/injection, schedule: Q04DX002 (ip), vehicle: Klucel (hydroxypropylcellulose) (HPC)
[6] = dose: 200.0 mg/kg/injection, schedule: Q04DX002 (ip), vehicle: Klucel (hydroxypropylcellulose) (HPC)
[7] = dose: 400.0 mg/kg/injection, schedule: Q04DX002 (ip), vehicle: Klucel (hydroxypropylcellulose) (HPC)
[8] = dose: 100.0 mg/kg/injection, schedule: Q01DX001 (ip), vehicle: carboxymethylcellulose (CMC)
[9] = dose: 200.0 mg/kg/injection, schedule: Q01DX001 (ip), vehicle: carboxymethylcellulose (CMC)
[10] = dose: 400.0 mg/kg/injection, schedule: Q01DX001 (ip), vehicle: carboxymethylcellulose (CMC)
[11] = dose: 100.0 mg/kg/injection, schedule: Q01DX009 (ip), vehicle: saline
[12] = dose: 100.0 mg/kg/injection, schedule: Q04DX003 (ip), vehicle: saline
[13] = dose: 200.0 mg/kg/injection, schedule: Q01DX009 (ip), vehicle: saline
[14] = dose: 200.0 mg/kg/injection, schedule: Q04DX003 (ip), vehicle: saline
[15] = dose: 400.0 mg/kg/injection, schedule: Q01DX009 (ip), vehicle: saline
[16] = dose: 400.0 mg/kg/injection, schedule: Q04DX003 (ip), vehicle: saline
[17] = dose: 100.0 mg/kg/injection, schedule: Q01DX009 (ip), vehicle: carboxymethylcellulose (CMC)
[18] = dose: 200.0 mg/kg/injection, schedule: Q01DX009 (ip), vehicle: carboxymethylcellulose (CMC)
[19] = dose: 100.0 mg/kg/injection, schedule: Q01DX009 (ip), vehicle: Klucel (hydroxypropylcellulose) (HPC)

Measured: T/C

O=C(c1ccccc1)C1(c2ccccc2)OC1(C(=O)c1ccccc1)c1ccccc1 (stereo not given)
inactive: [1] 94 % of control | [2] 92 % of control | dose: 200.0 mg/kg/injection, schedule: Q01DX001 (ip), vehicle: Klucel (hydroxypropylcellulose) (HPC) 94 % of control | [3] 101 % of control | dose: 400.0 mg/kg/injection, schedule: Q01DX001 (ip), vehicle: Klucel (hydroxypropylcellulose) (HPC) 87 % of control | [4] 95 % of control

N/C(=N\c1nc(-c2ccccc2)cc(-c2ccccc2O)n1)N1CCOCC1
inactive: [5] 98 % of control | [6] 98 % of control | [7] 95 % of control

O=C1c2cc([N+](=O)[O-])ccc2-c2cc(F)ccc21
inactive: dose: 50.0 mg/kg/injection, schedule: Q01DX001 (ip), vehicle: carboxymethylcellulose (CMC) 104 % of control | [8] 95 % of control | [9] 93 % of control | [10] 90 % of control

NC1=CC(=O)c2ccccc2C1=O
inactive: dose: 15.6 mg/kg/injection, schedule: Q01DX Z (ip), vehicle: other 112 % of control | dose: 62.5 mg/kg/injection, schedule: Q01DX Z (ip), vehicle: other 106 % of control | dose: 100.0 mg/kg/injection, schedule: Q04DX003 (ip), vehicle: saline with Tween-80 103 % of control | dose: 200.0 mg/kg/injection, schedule: Q04DX003 (ip), vehicle: saline with Tween-80 98 % of control

CC(=O)ONc1nc(C)c(CCC2OCCO2)c(SC(=N)N)n1
inactive: [11] 109 % of control | [12] 110 % of control | [13] 113 % of control | [14] 105 % of control | [15] 93 % of control | [16] 100 % of control

O=C(Nc1ccc2ccccc2c1)c1ccc2c(c1)C(=O)OC2=O
inactive: [8] 97 % of control and 100 % of control | [17] 97 % of control and 98 % of control | dose: 100.0 mg/kg/injection, schedule: Q04DX002 (ip), vehicle: carboxymethylcellulose (CMC) 96 % of control and 103 % of control | dose: 100.0 mg/kg/injection, schedule: Q04DX003 (ip), vehicle: carboxymethylcellulose (CMC) 100 % of control and 91 % of control | [9] 93 % of control and 100 % of control | [18] 96 % of control and 100 % of control | dose: 200.0 mg/kg/injection, schedule: Q04DX002 (ip), vehicle: carboxymethylcellulose (CMC) 99 % of control and 86 % of control | dose: 200.0 mg/kg/injection, schedule: Q04DX003 (ip), vehicle: carboxymethylcellulose (CMC) 92 % of control and 91 % of control | [10] 93 % of control and 97 % of control | dose: 400.0 mg/kg/injection, schedule: Q01DX009 (ip), vehicle: carboxymethylcellulose (CMC) 100 % of control and 104 % of control | dose: 400.0 mg/kg/injection, schedule: Q04DX002 (ip), vehicle: carboxymethylcellulose (CMC) 95 % of control and 90 % of control | dose: 400.0 mg/kg/injection, schedule: Q04DX003 (ip), vehicle: carboxymethylcellulose (CMC) 88 % of control and 89 % of control

CCCCC(NC(=O)C(F)(F)F)C(=O)O (stereo not given)
inactive: [17] 105 % of control | [18] 96 % of control

O/N=C/C=N/O.O/N=C/C=N/O.[Cl][Rh][Cl]
inactive: dose: 50.0 mg/kg/injection, schedule: Q01DX009 (ip), vehicle: saline 107 % of control | dose: 50.0 mg/kg/injection, schedule: Q04DX003 (ip), vehicle: saline 100 % of control | [11] 101 % of control | [12] 104 % of control | [13] 95 % of control | [14] 102 % of control | [15] 94 % of control | [16] 98 % of control

N=C(N)SC(c1ccccc1)c1ccccc1
inactive: dose: 25.0 mg/kg/injection, schedule: Q01DX001 (ip), vehicle: Klucel (hydroxypropylcellulose) (HPC) 97 % of control | dose: 50.0 mg/kg/injection, schedule: Q01DX001 (ip), vehicle: Klucel (hydroxypropylcellulose) (HPC) 104 % of control | [1] 101 % of control | dose: 100.0 mg/kg/injection, schedule: Q01DX001 (ip), vehicle: saline 98 % of control

CC(/C=N/NC(N)=O)=N\NC(N)=O
inactive: dose: 15.0 mg/kg/injection, schedule: Q01DX Z (ip), vehicle: saline 107 % of control | dose: 30.0 mg/kg/injection, schedule: Q01DX Z (ip), vehicle: saline 107 % of control | dose: 60.0 mg/kg/injection, schedule: Q01DX Z (ip), vehicle: saline 89 % of control | dose: 60.0 mg/kg/injection, schedule: Q01DX Z (oral), vehicle: saline 91 % of control | dose: 120.0 mg/kg/injection, schedule: Q01DX Z (oral), vehicle: saline 89 % of control | dose: 240.0 mg/kg/injection, schedule: Q01DX Z (oral), vehicle: saline 91 % of control | dose: 480.0 mg/kg/injection, schedule: Q01DX Z (oral), vehicle: saline 91 % of control

C1CNC(NC23CC4CC(CC(C4)C2)C3)=N1
inactive: [19] 98 % of control

O=C(O)C1OC(Oc2ccc3oc4ccccc4c(=O)c3c2)C(O)C(O)C1O (stereo not given)
inactive: [19] 91 % of control | dose: 200.0 mg/kg/injection, schedule: Q01DX009 (ip), vehicle: Klucel (hydroxypropylcellulose) (HPC) 97 % of control | dose: 400.0 mg/kg/injection, schedule: Q01DX009 (ip), vehicle: Klucel (hydroxypropylcellulose) (HPC) 111 % of control

N#CC12CC=CCC1CCC2=N (stereo not given)
inactive: dose: 12.5 mg/kg/injection, schedule: Q01DX009 (ip), vehicle: Klucel (hydroxypropylcellulose) (HPC) 96 % of control | dose: 25.0 mg/kg/injection, schedule: Q01DX009 (ip), vehicle: Klucel (hydroxypropylcellulose) (HPC) 89 % of control

O=C(CC(=O)Oc1ccc(Cl)cc1Cl)Oc1ccc(Cl)cc1Cl
inactive: [2] 93 % of control | [3] 90 % of control | [4] 95 % of control

Nc1ccccc1-n1cccc1
inactive: dose: 100.0 mg/kg/injection, schedule: Q04DX003 (ip), vehicle: other 100 % of control | dose: 200.0 mg/kg/injection, schedule: Q04DX003 (ip), vehicle: other 113 % of control | dose: 400.0 mg/kg/injection, schedule: Q04DX003 (ip), vehicle: other 100 % of control

CCCCCCCCN(C)/N=N/c1nc[nH]c1C(=O)OCC
inactive: dose: 50.0 mg/kg/injection, schedule: Q01DX001 (ip), vehicle: other 94 % of control | dose: 100.0 mg/kg/injection, schedule: Q01DX001 (ip), vehicle: other 105 % of control | dose: 200.0 mg/kg/injection, schedule: Q01DX001 (ip), vehicle: other 113 % of control | dose: 400.0 mg/kg/injection, schedule: Q01DX001 (ip), vehicle: other 105 % of control

CCCCN1C(=O)CSC1=S
inactive: [5] 97 % of control | [6] 113 % of control | [7] 100 % of control

CNC(=O)Oc1cccc(NC(=O)C=C(C)C)c1
inactive: [2] 91 % of control | [3] 89 % of control

COc1cc2c(cc1OC)-c1c([O-])c3cc(OC)c(OC)cc3n[n+]1CC2
inactive: dose: 75.0 mg/kg/injection, schedule: Q01DX001 (ip), vehicle: saline 98 % of control | dose: 150.0 mg/kg/injection, schedule: Q01DX001 (ip), vehicle: saline 86 % of control | dose: 300.0 mg/kg/injection, schedule: Q01DX001 (ip), vehicle: saline 89 % of control

O=c1cc(S(=O)(=O)c2ccccc2)[nH]c(=O)[nH]1
inactive: dose: 100.0 mg/kg/injection, schedule: Q04DX003 (ip), vehicle: Klucel (hydroxypropylcellulose) (HPC) 97 % of control | dose: 200.0 mg/kg/injection, schedule: Q04DX003 (ip), vehicle: Klucel (hydroxypropylcellulose) (HPC) 101 % of control

NC(CSS(=O)(=O)O)=NCCCc1c[nH]c2ccccc12
inactive: dose: 12.5 mg/kg/injection, schedule: Q04DX002 (ip), vehicle: Klucel (hydroxypropylcellulose) (HPC) 100 % of control | dose: 25.0 mg/kg/injection, schedule: Q04DX002 (ip), vehicle: Klucel (hydroxypropylcellulose) (HPC) 107 % of control | dose: 50.0 mg/kg/injection, schedule: Q04DX002 (ip), vehicle: Klucel (hydroxypropylcellulose) (HPC) 107 % of control
